Target: T1, recombinant DCLK1 (Homo sapiens, UniProt O15075)
T1 construct: N-terminally 6-His tagged human DCLK1 residues G351-H689 was prepared; 6-His (N); made in house; host or cells: E. coli BL21(DE3), co-transformed with lambda phosphatase
T1 sequence (O15075 351-689 isoform O15075-2): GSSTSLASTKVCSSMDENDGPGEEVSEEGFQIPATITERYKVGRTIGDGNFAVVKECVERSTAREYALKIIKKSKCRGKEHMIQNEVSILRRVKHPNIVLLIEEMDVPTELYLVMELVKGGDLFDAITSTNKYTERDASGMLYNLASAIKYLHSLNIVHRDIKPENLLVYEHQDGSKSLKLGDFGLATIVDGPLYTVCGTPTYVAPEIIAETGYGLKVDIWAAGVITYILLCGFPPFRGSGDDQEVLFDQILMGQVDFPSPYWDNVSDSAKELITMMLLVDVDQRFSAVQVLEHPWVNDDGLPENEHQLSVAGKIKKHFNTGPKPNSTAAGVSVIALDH
Experiment: DCLK1 mobility shift assay (gel shift assay)
Format: biochemical
Conditions: 30 nM recombinant DCLK1, 100 μM ATP, 1 μM FAM-labeled peptide substrate, two hours at room temperature, 8-point dose-response
Procedure: The DNA construct consisting of N-terminally 6-His tagged human DCLK1 residues G351-H689 was prepared. Thus prepared plasmid was co-transformed with lambda phosphatase under chloramphenicol selection into BL21(DE3) E. coli cells.
Protein expression was induced from the DCLK1 plasmid with 0.6 mM IPTG and expression was allowed to continue for about 10 hours at a temperature of 18° C. Cells was harvested by centrifugation and resuspended in Lysis buffer with protease inhibitors (1 mM Benzamidine and 1 mM PMSF). Lysis was performed by passing 3 times through a homogenizer. Lysate was centrifuged at 20K for 1 hour at a temperature of 4° C. and the supernatant was filtered through a 0.2 micron membrane. Protein was loaded on nickel (Ni)-NTA resin, washed with Wash buffers, and eluted with 300 mM imidazole buffer. […]
DCLK1 kinase activity was measured in vitro using an electrophoretic mobility shift assay. […] Substrate and product peptides present in each sample were electrophoretically separated and detected using 12-channel LabChip3000 microfluidic capillary electrophoresis instrument (Caliper Life Sciences, Waltham Mass., USA). The change in the relative fluorescence intensities of substrate and product peaks (reflecting enzyme activity) was measured. Capillary electrophoregrams were analyzed using HTS Well Analyzer software (Caliper Life Sciences, Waltham Mass., USA).

## COc1cc(C(=O)NC2CCN(C)CC2)ccc1Nc1ncc2c(n1)N(C)c1ccccc1C(=O)N2CC(F)(F)F [Compound 8, 3-methoxy-4-((11-methyl-6-oxo-5-(2,2,2-trifluoroethyl)-6,11-dihydro-5H-benzo[e]pyrimido[5,4-b][1,4]diazepin-2-yl)amino)-N-(1-methylpiperidin-4-yl)benzamide]
  IC50 against DCLK1 compared with the positive control (FIG. 2): substantially decreased from the IC50 value of the positive control

## COc1cc(N2CCN(C)CC2)ccc1Nc1ncc2c(n1)N(C)c1ccccc1C(=O)N2CC(F)(F)F [Compound 2, 2-((2-methoxy-4-(4-methylpiperazin-1-yl)phenyl)amino)-11-methyl-5-(2,2,2-trifluoroethyl)-5,11-dihydro-6H-benzo[e]pyrimido[5,4-b][1,4]diazepin-6-one]
  IC50 against DCLK1 compared with the positive control (FIG. 2): substantially decreased from the IC50 value of the positive control
